Results: patent EP2292587A1, “PHARMACEUTICAL COMPOSITION FOR INHIBITING THE TRANSCRIPTION FACTOR INDUCIBLE BY HYPOXIA, MODULATORS OF PATHOLOGICAL PROCESSES OF ANGIOGENESIS, ONCOGENESIS, INFLAMMATION, APOPTOSIS, AND CELLULAR THERAPY” (Fundacion De La Comunidad Valenciana Centro De …, priority 2008, dated 2009)

What was measured:
epSPCs = experiment: proliferation (ATP, CellTiter-Glo) and neurosphere formation of epSPCs; format: cell-based, rat; settings: for rates of proliferation (ATP): 500 nM
Method: The accumulation of ATP, a metabolite directly related to the increase of metabolic activity and therefore with the proliferative activity, was determined with the commercial CellTiter-Glo® luminescent cell viability kit (Promega, Madison, WI).

HCT116/p53-/- cells = experiment: cell viability by ATP quantification in colon cancer cells; format: cell-based, human; settings: 48 hours, 0.5-1000 µM
Method: To determine the effects of FM19G11 on human colon cancer cells (HCT116 and HT29), cell viability assays were carried out in HT29, HCT116/p53^+/+ and HCT116/p53^-/- cells by means of quantifying the ATP which associates with metabolically active cells.

HCT116/p53-/- = experiment: anchorage-independent growth in semisolid agar, HCT116/p53-/-; format: cell-based, human; settings: 0.5 µM, 10 days, versus DMSO
Method: Anchorage-independent cell growth is a study which allows predicting the tumorigenicity of tumor cells in vivo. Anchorage-independent cell growth studies were performed for HT29, HCT116/p53^+/+ and HCT116/p53^-/- cells in semisolid agar which were monitored daily to determine the efficiency of the formation of colonies in the presence of carrier (DMSO) or FM19G11. To that end, the starting material was 75 x 10^3 cells suspended in semisolid agar, which were maintained until 10 days later. […] A reduction of the formation of colonies in the HCT116/p53^-/- cells is not observed. The growth of colonies was quantified in three independent experiments by means of counting colonies in the 4 x magnification optical field of an inverted optical microscope.

ATR = experiment: activation kinetics of ATR (Western blot), HCT116/p53+/+; format: cell-based, human; settings: 0.5 µM, after 1 hour
From the text: To determine the degree of involvement of p53 in the possible effects caused by FM19G11, a HCT116 colon cancer cell line with expression of p53 and the same HCT116 line in which p53 was inactivated by homologous recombination were used (Bunz, F, Dutriaux, A, Lengauer, C, Waldman, T, Zhou, S, Brown, JP et al., (1998) Requirement for p53 and p21 to sustain G2 arrest after DNA damage. Science 282: 1497-501; Bunz, F, Hwang, PM, Torrance, C, Waldman, T, Zhang, Y, Dillehay, L et al., (1999) Disruption of p53 in human cancer cells alters the responses to therapeutic agents. J Clin Invest 104: 263-9.). The HCT116/p53^+/+ and HCT116/p53^-/- cells were exposed to FM19G11 (0.5 µM) at different times, the phosphorylation (activation) pattern of the ATR protein and of p53 which can be phosphorylated by ATR (Tibbetts, RS, Brumbaugh, KM, Williams, JM, Sarkaria, JN, Cliby, WA, Shieh, SY et al., (1999) A role for ATR in the DNA damage-induced phosphorylation of p53. Genes Dev 13: 152-7.), in p53-proficient HCT116 cells, as well as ATR in p53-deficient cells being analyzed (Figure 23). […] This quick activation of ATR coincides with that of p53 in HCT116/p53^+/+ cells after 1 hour of treatment with FM19G11 (0.5 µM), but the activation of p53 remains virtually on the expression of cells without drug, for the different times analyzed.

Cc1ccc(C(=O)COC(=O)c2cccc(NC(=O)c3ccc([N+](=O)[O-])cc3[N+](=O)[O-])c2)cc1 [FM19G11, 2-oxo-2-(p-tolyl)ethyl 3-((2,4-dinitro)benzamido)benzoate]
rates of proliferation (ATP) (epSPCs; 48 hours, ~20% O2): increases the rates of proliferation
rates of proliferation (ATP) (epSPCs; hypoxic conditions (1% O2)): not reproduced
formation of neurospheres (epSPCs; normoxic conditions (20% O2)): favors the formation of neurospheres
sensitivity (cell viability, ATP) compared to HCT116/p53+/+ or HT29 (HCT116/p53-/- cells): less sensitive
reduction of the formation of colonies in semisolid agar (HCT116/p53-/-): not observed
phosphorylation of ATR (ATR): quick increase
